From PubChem BioAssay (NCI)
Where “and” joins values, the source holds several entries; their conditions need not be identical. Identical values can stand only once.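 Five concentrations, 48 hours, 96-well plates. GI50 is the concentration that inhibits growth by half. TGI: total growth inhibition.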

What was measured:
Assay in all cases: NCI anticancer screen, dose series, 48 h
MCF7 breast = tested on: MCF7 breast
TK-10 renal = tested on: TK-10 renal
PC-3 prostate = tested on: PC-3 prostate
OVCAR-3 ovarian = tested on: OVCAR-3 ovarian
HCT-116 colon = tested on: HCT-116 colon
HOP-92 NSCLC = tested on: HOP-92 NSCLC
EKVX NSCLC = tested on: EKVX NSCLC
CCRF-CEM leukemia = tested on: CCRF-CEM leukemia
T-47D breast = tested on: T-47D breast
RXF 393 renal = tested on: RXF 393 renal

| SMILES | GI50 (MCF7 breast) | TGI (MCF7 breast) | GI50 (TK-10 renal) | TGI (TK-10 renal) | GI50 (PC-3 prostate) | TGI (PC-3 prostate) | GI50 (OVCAR-3 ovarian) | TGI (OVCAR-3 ovarian) | GI50 (HCT-116 colon) | TGI (HCT-116 colon) | GI50 (HOP-92 NSCLC) | TGI (HOP-92 NSCLC) | GI50 (EKVX NSCLC) | TGI (EKVX NSCLC) | GI50 (CCRF-CEM leukemia) | TGI (CCRF-CEM leukemia) | GI50 (T-47D breast) | TGI (T-47D breast) | GI50 (RXF 393 renal) | TGI (RXF 393 renal) |
| --- | --- | --- | --- | --- | --- | --- | --- | --- | --- | --- | --- | --- | --- | --- | --- | --- | --- | --- | --- | --- |
| O=C(NC[C@H](O)CN1CCc2ccccc2C1)c1cc(NC2COC2)ncn1 | 3930 nM | > 100 µM | 22000 nM | 88.9 µM | 5920 nM | 96.3 µM | 10800 nM | 49.1 µM | 22700 nM | > 100 µM | 18100 nM | > 100 µM | 24800 nM | > 100 µM | 26900 nM | > 100 µM | 9260 nM | > 100 µM | 2310 nM | 12.9 µM |
| O=C(/C=C/c1ccc[nH]1)c1ccc(-n2ccc(C(F)(F)F)n2)cc1 | > 82200 nM | > 100 µM | > 100000 nM | > 100 µM | 371 nM | > 100 µM | 764 nM | 22.6 µM | > 100000 nM | > 100 µM | > 100000 nM | > 100 µM | > 100000 nM | > 100 µM | 1060 nM | > 100 µM | > 40900 nM | > 100 µM | 3610 nM | > 31.2 µM |
| CN(C)CC[C@H](CSc1ccccc1)Nc1ccc(S(=O)(=O)NC(=O)c2ccc(N3CCN(Cc4ccccc4-c4ccc(Cl)cc4)CC3)cc2)cc1[N+](=O)[O-] | 3000 nM | > 41.3 µM | 2440 nM | 5.37 µM | 4070 nM | > 100 µM | 3920 nM | 23.6 µM | 2930 nM | > 27.3 µM | 186 nM | 0.833 µM | 3320 nM | > 100 µM | 360 nM | > 100 µM | 5870 nM | > 60.4 µM | 918 nM | 4.27 µM |
| CCOc1ccc(/C=C2\N=C(c3ccc([N+](=O)[O-])cc3)OC2=O)cc1 |  | > 100 µM |  | > 100 µM |  | > 100 µM |  | > 100 µM |  | > 100 µM |  | > 100 µM |  | > 100 µM |  | > 100 µM |  | > 100 µM |  | > 100 µM |
| CC(C)(/C=C(\C#N)C(=O)N1CCC[C@@H](n2nc(-c3ccc(Oc4ccccc4)cc3F)c3c(N)ncnc32)C1)N1CCN(C2COC2)CC1 | 2570 nM | 12.8 µM | 4120 nM | 15.9 µM | 10600 nM | 27.6 µM | 10500 nM | 23.2 µM | 6310 nM | 20.1 µM | 2800 nM | 11.1 µM | 6030 nM | 19.2 µM | 5690 nM | > 100 µM | 4770 nM | 29.5 µM | 2310 nM | 7.66 µM |
| O=C(Cc1ccc(F)c(Cl)c1)Nc1cc(C2(C(F)(F)F)CC2)nn1CC1CCCCC1 | 4010 nM | > 15 µM | 4780 nM | > 15 µM | 4680 nM | > 15 µM | 3810 nM | > 15 µM | 3880 nM | > 15 µM | 2690 nM | 10.7 µM | 2550 nM | 12.6 µM | 4720 nM | > 15 µM | 3780 nM | 13.6 µM | 2370 nM | 10.1 µM |
| CCOC(=O)Nc1cc2c(c(N)n1)N=C(c1ccccc1)CO2 | 100 nM | 21 µM | 704 nM | 19.3 µM | 182 nM | 6.44 µM | 34.5 nM | 0.109 µM | 84 nM | 13.9 µM | 7130 nM | 29.1 µM | 409 nM | > 46 µM | 65.3 nM | 4.42 µM | 20400 nM | 73.3 µM | 275 nM | 32.1 µM |
| O=c1oc2ccc(-c3ccc(F)cc3F)cc2c(=O)n1-c1cccc(C(F)(F)F)c1 | 3220 nM | > 100 µM | 3520 nM | 15.8 µM | 2040 nM | 12.4 µM | 784 nM | 12.8 µM | 1330 nM | 3.45 µM | 172 nM | 0.931 µM | 2160 nM | > 100 µM | 2420 nM | 7.85 µM | 317 nM | 3.29 µM | 1230 nM | 4.14 µM |
| CC1CC2CCCC(O)=C2C(=O)O1 (centres undefined) |  | > 100 µM |  | > 100 µM |  | > 100 µM |  | > 100 µM |  | > 100 µM |  | > 100 µM |  | > 100 µM |  | > 100 µM |  | > 100 µM |  | > 100 µM |
| Cc1nnc(Nc2ccc(NC(=O)Nc3ccc(Cl)cc3)cc2)c2ccccc12 | 2210 nM | 10.9 µM | 3190 nM | 9.42 µM | 3490 nM | 11.9 µM | 1870 nM | 3.99 µM | 1860 nM | 3.59 µM | 2560 nM | 6.06 µM | 3470 nM | 17.9 µM | 2380 nM | 5.99 µM | 2060 nM | 5.08 µM | 2170 nM | 4.13 µM |
| Cc1cc(N[C@@H]2CCC[C@H](Nc3ccnc4cc(Cl)ccc34)C2)nc(N2CCCCCC2)n1 | 1430 nM | 3.03 µM | 1730 nM | 3.52 µM | 1810 nM | 4.05 µM | 1910 nM | 4.06 µM | 1050 nM | 2.36 µM | 1620 nM | 3.36 µM | 1620 nM | 3.84 µM | 1590 nM | 10.7 µM | 2220 nM | 5.38 µM | 1550 nM | 3.1 µM |
| O=C(Nc1cc(C(F)(F)F)cc(C(F)(F)F)c1)c1cc(Cl)ccc1O | 302 nM and 269 nM | > 10 µM and 5.26 µM | 442 nM and 387 nM | > 10 µM and 11.1 µM | 257 nM and 266 nM | > 3.02 µM and 3.78 µM | 239 nM and 230 nM | > 3.54 µM and 9.93 µM | 213 nM and 238 nM | 0.999 µM and 1.16 µM | 120 nM and 41.2 nM | 0.418 µM and 0.304 µM | 295 nM and 288 nM | > 3.58 µM and 3.43 µM | 237 nM and 378 nM | 1.3 µM and 7.79 µM | 150 nM and 194 nM | 0.604 µM and 1.24 µM | 245 nM and 190 nM | 1.16 µM and 0.673 µM |
| CN(C)C1CCN(C(=O)c2ccc(NC(=O)Nc3ccc(-c4nc(N5CCOCC5)c5cccn5n4)cc3)cc2)CC1 |  | 1.51 µM | 393 nM | 3.84 µM | 39.7 nM | 2.1 µM | 41.2 nM | 1.12 µM | 70.5 nM | 20 µM | < 15 nM | 0.102 µM | 70.2 nM | 3.46 µM | 48.3 nM | 4.69 µM | 13.4 nM | 0.0664 µM | 88 nM | 0.604 µM |
